From patent US20050112701A1, “Test system for the identification of APJ receptor ligands” (Aventis Pharma Deutschland GmbH, priority 2003, published 2005)
pEC50: −log10 of the molar value. Ends that are not written are not given here.

Assays:
Assay type in all cases: cell-based
[1] = biological target: T1, APJ receptor (Homo sapiens, UniProt P35414); experiment: FLIPR calcium assay in stably transfected HEK 293 cells overexpressing G protein and APJ receptor (FIG. 4); parameters: expressed in transfected cells; host or cells: HEK 293; conditions: 50 nmol/l, 200 nmol/l, 1 μmol/l; HEK 293 stably cotransfected with G protein and APJ; response required APJ receptor
T1 sequence (P35414 1-380): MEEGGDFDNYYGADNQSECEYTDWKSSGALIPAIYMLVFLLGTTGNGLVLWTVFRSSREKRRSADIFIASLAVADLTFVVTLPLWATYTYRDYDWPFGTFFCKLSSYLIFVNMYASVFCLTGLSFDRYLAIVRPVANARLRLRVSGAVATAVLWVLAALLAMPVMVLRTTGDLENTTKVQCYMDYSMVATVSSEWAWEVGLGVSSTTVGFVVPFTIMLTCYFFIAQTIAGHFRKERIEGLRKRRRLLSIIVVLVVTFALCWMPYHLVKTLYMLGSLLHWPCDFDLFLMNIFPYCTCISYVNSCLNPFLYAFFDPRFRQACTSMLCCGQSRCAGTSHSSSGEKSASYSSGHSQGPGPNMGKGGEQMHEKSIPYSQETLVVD
Experimental: Data presented are mean values (fluorescence intensity units, FIU) from 2 individual experiments performed in duplicate.
(§1) The FLIPR calcium assay provides a suitable method for detecting changes in intracellular calcium concentration. It is a fluorescence-based assay which was performed according to the manufacture's instructions (Molecular Devices, CA, USA). Briefly summarized, cells were seeded on 96- or 384-well plates Loading Buffer was added to the cells and plates incubated for 1 hour at 37° C. After incubation cells were stimulated with the prevailing APJ receptor ligand or none. Thereafter intracellular calcium concentration was measured in the FLIPR according to the FLIPR system manual.

[2] = biological target: T1, APJ receptor; experiment: FLIPR calcium assay in CHO cells transiently cotransfected with APJ receptor and G protein α subunits (FIG. 3); parameters: expressed in transfected cells; host or cells: CHO (Chinese hamster ovary), transient; conditions: 1 μmol/l peptide; CHO cells cotransfected with APJ and α16 or αΔ6qi4myr; response required chimeric/promiscuous Gα subunit
Text: The APJ receptor was transiently cotransfected in CHO cells (Chinese hamster ovary cells) with vector DNA as a control (white column) or the G protein α subunits α16 (black column) and αΔ6qi4myr (striped column) according to methods known to the one skilled in the art. […] Data presented are mean values (fluorescence intensity units, FIU) from 2 individual experiments performed in duplicate.
as §1

[3] = biological target: T1, APJ receptor; experiment: FLIPR calcium assay, EC50 of apelin peptides in HEK293-PSCi4qi4-APJ cells; parameters: expressed in transfected cells; host or cells: HEK293-PSCi4qi4 (HEK 293 stably expressing Gαi4qi4); conditions: intracellular calcium
Experimental: as §1

| Compound | intracellular calcium release via the APJ receptor [1] | intracellular calcium release via the APJ receptor [2] | pEC50 ([3]; first of two independent measurements) | pEC50 ([3]; second of two independent measurements) |
| --- | --- | --- | --- | --- |
| LVQPRGSRNGPGPWQGGRRKFRRQRPRLSHKGPMPF [Apelin-36] | induced intracellular calcium release via the APJ receptor in a dose-dependent manner | induced intracellular calcium release | 7.29 | 7.57 |
| CSCC[C@H](NC(=O)[C@@H]1CCCN1C(=O)CNC(=O)[C@H](CCCCN)NC(=O)[C@H](Cc1c[nH]cn1)NC(=O)[C@H](CO)NC(=O)[C@H](CC(C)C)NC(=O)[C@H](CCCNC(=N)N)NC(=O)[C@@H]1CCCN1C(=O)[C@@H](N)CCCNC(=N)N)C(=O)N1CCC[C@H]1C(=O)N[C@@H](Cc1ccccc1)C(=O)O [Apelin-12] | – | induced intracellular calcium release | – | – |
